{"source": "patent US20250339409A1", "about": "“USES OF PAN BET INHIBITORS” (VYNE THERAPEUTICS INC., priority 2021, published 2025)", "key": {"MMP-9": {"system": "MMP-9", "assay": "RHE vitiligo model: MMP-9 secretion by ELISA", "type": "cell-based, human", "details": "for reduction in secreted MMP-9: 1% treatment, vs stimulated/untreated control or vehicle; for MMP-9 (% stimulated ctl) Mean / MMP-9 (% stimulated ctl): TNF-α/IFN-γ stimulated RHE; for MMP-9 (% stimulated ctl) Mean / MMP-9 (% stimulated ctl) / Mean conc MMP-9 / Conc MMP-9: 48 h; for MMP-9 (% stimulated ctl) / Conc MMP-9: replicates N1-N3; for Mean conc MMP-9 / Conc MMP-9: culture medium of RHE, TNF-α 12 ng/ml/IFN-γ 12 ng/ml", "procedure": "[…] Three epidermis samples per condition are fixed in 4% formaldehyde solution and embedded in paraffin for further analysis (morphology analysis, melanin and melanocytes localisation/quantification). Three other epidermis samples per condition are put in a specific lysis buffer for total RNA extraction.\nAt the end of the treatments, culture media is collected (from 3 epidermis per condition), aliquoted and stored at −20° C. until use in ELISA assays. The quantity of MMP-9 secreted by the epidermis at the end of the treatments is analysed using the human MMP-9 Quantikine ELISA kit (Bio-Techne; DMP900). The secretion of E-cadherin in culture media is measured using to human E-cadherin Quantikine ELISA kit (Bio-Techne; DCADE0) dedicated for the measurement of natural human E-cadherin in culture supernates, serum, plasma, urine, and saliva.\nThe ELISAs are performed following the instructions of the supplier. The quantities of MMP-9 and E-cadherin are determined by comparisons with standard curves performed with recombinant human MMP-9 or E-cadherin provided in the kits.\nQuantification of secretion of MMP-9 and E-cadherin by ELISA from collected culture medium was conducted in accordance with Method E. The results, shown in FIG. 5A and FIG. 5B are based on Tables 23 and 24 respectively and presented in percentage of release in comparison to the stimulated control. A statistical analysis (student t-test) was performed to compare the effects of the treatments with the formulations to the vehicle (with $: 0.05>p>0.01; $$: 0.01>p>0.001; and $$$: p<0.001). The same analysis was performed to compare the effects of the vehicle and of the unstimulated control to the stimulated control (with *: 0.05>p>0.01; **: 0.01>p>0.001; and ***: p<0.001). The analysis was performed from three replicates per condition (n=3). The mean of the three values and the standard deviation are presented on the histograms in FIG. 5A and FIG. 5B. As shown in Table 21 and FIG. 5A and consistent with the results of Part A, MMP-9 secretion was increased following the stimulation with the cytokines, which validates the assay."}, "TRP-1": {"system": "TRP-1", "assay": "RHE vitiligo model: melanocyte localization after TRP-1 immunostaining", "type": "cell-based, human", "details": "for Mean per RHE (%): RHE1-3", "procedure": "TRP-1 (tyrosinase related protein-1) is a melanocyte specific protein and a member of the tyrosinase gene family which also includes tyrosinase. It is very often used as specific marker of melanocytes. To visualize and quantify the melanocytes within the epidermis, sections of epidermis (6 μm thick) prepared from epidermis embedded in paraffin are used for TRP-1 immunostaining.\nAfter deparaffination and re-hydration, antigen unmasking is performed by heating in citrate ph6 buffer. Samples are then saturated with goat serum, in order to avoid unspecific labelling.\nSamples are incubated overnight, at 4° C., with a primary antibody raised against human TRP-1 (Abcam; Ab235447). After washing, the samples are incubated (for 30 minutes, at room temperature) with a secondary antibody anti-rabbit coupled to Alexa Fluor 488 dye (Thermo Fisher Scientific; A-11008). Samples are then incubated with DAPI or 4′,6′-diamidino-2-phenylindole (Thermo Fisher Scientific, D1306), a fluorescent molecule able of binding to the adenine and thymine bases of DNA and slides are mounted with specific medium, before taking the images. For each tissue/sample, 1 slide section is used to make 3 images. Images are taken using a Nikon Eclipse (Ni-E) photomicroscope coupled to a numerical camera (DS-Ri2). Quantification of the protein is performed with NIS-Element AR software (Nikon). The detection thresholds are firstly determined, using the most marked slices, in order to avoid saturation of detection. For each image, a region of interest (ROI) is delimited manually (including only the basal layers of epidermis which are supposed to contain the melanocytes) and its surface was measured. The software then measures the marked area within the delimited area, in number of pixels. The mean intensity of the marked surface multiplied by the “marked surface” determines the staining for the given ROI. This value is then normalized for a given surface by dividing the staining value by the surface of the ROI.\nFormulations containing four doses of BETi1 the BETi1 vehicle (placebo), were evaluated in RHE TNF-α/IFN-γ vitiligo model as described in Experimental section Method G and representative images of RHE after TRP-1 staining are shown in FIG. 7A and respective quantification with and without normalization are shown in Table 19 and Table 20 and FIGS. 7B and FIG. 7C respectively. The stimulation with the cytokine cocktail (TNF-α and IFN- ? ) in accordance with Part A and B, reduced the expression of TRP-1 and thus the abundance of melanocytes in the basal layers of the RHE, confirming the melanocytorhagy. In the model, stimulated treated with the vehicle induced a significant […] of TRP-1 abundance as compared to the stimulated untreated control. Without being bound by any theory the barrier effect provided by petrolatum in the vehicle, which increases skin hydration, has some effect on retention of melanocytes in the basal layer. […] A dose response could clearly be observed with the BETi1 formulation, with a tendency to the increase for the dose of 0.1% and with the two last concentrations being not significant. The effects of the ruxolitinib cream at 1% could not be assessed given that the sections have detached from the glass slides during the immunostaining process (probably without being bound by any theory may be due to the bad structure of the epidermis)."}, "[1]": {"details": "BETi1 0.001%, stimulated RHE, without normalization to ROI"}, "[2]": {"details": "BETi1 1%, stimulated RHE, with normalization to ROI"}, "[3]": {"details": "BETi1 1%, stimulated RHE, without normalization to ROI"}, "[4]": {"details": "BETi1 10.001% [sic], stimulated RHE, with normalization to ROI"}}, "note": "Values joined by “and” are separate entries in the source; they are usually repeats but may differ in a detail not shown here. Identical values can stand only once."}
{"smiles": "Cn1cc(-c2cccc(O)c2Oc2ccccc2)c2cc[nH]c2c1=O", "note": "[BETi1]", "values": [{"measurement": "reduction in secreted MMP-9", "setting": "MMP-9", "result": "~95", "unit": "%"}, {"measurement": "reduction in secreted MMP-9", "setting": "MMP-9; listed as BETi1 1%", "result": "> 95", "unit": "%"}, {"measurement": "reduction in secreted MMP-9", "setting": "MMP-9; listed as BETi 1%", "result": "about 94.7%"}, {"measurement": "MMP-9 (% stimulated ctl) Mean", "setting": "MMP-9; BETi1 0.001%", "result": 137, "unit": "%"}, {"measurement": "MMP-9 (% stimulated ctl)", "setting": "MMP-9; BETi1 0.001%", "result": "140% and 138% and 134%"}, {"measurement": "Mean conc MMP-9", "setting": "MMP-9; BETi1 0.001%", "result": 24.1, "unit": "ng/mL"}, {"measurement": "Conc MMP-9", "setting": "MMP-9; BETi1 0.001%", "result": "24.5 ng/mL and 24.1 ng/mL and 23.5 ng/mL"}, {"measurement": "MMP-9 (% stimulated ctl) Mean", "setting": "MMP-9; BETi1 0.01%", "result": 113, "unit": "%"}, {"measurement": "MMP-9 (% stimulated ctl)", "setting": "MMP-9; BETi1 0.01%", "result": "113% and 104% and 122%"}, {"measurement": "Mean conc MMP-9", "setting": "MMP-9; BETi1 0.01%", "result": 19.8, "unit": "ng/mL"}, {"measurement": "Conc MMP-9", "setting": "MMP-9; BETi1 0.01%", "result": "19.9 ng/mL and 18.2 ng/mL and 21.4 ng/mL"}, {"measurement": "MMP-9 (% stimulated ctl) Mean", "setting": "MMP-9; BETi1 0.1%", "result": 10, "unit": "%"}, {"measurement": "MMP-9 (% stimulated ctl)", "setting": "MMP-9; BETi1 0.1%", "result": "9% (2×) and 12%"}, {"measurement": "Mean conc MMP-9", "setting": "MMP-9; BETi1 0.1%", "result": 1.7, "unit": "ng/mL"}, {"measurement": "Conc MMP-9", "setting": "MMP-9; BETi1 0.1%", "result": "1.5 ng/mL and 2.0 ng/mL and 1.6 ng/mL"}, {"measurement": "MMP-9 (% stimulated ctl) Mean", "setting": "MMP-9; BETi1 1%", "result": 5, "unit": "%"}, {"measurement": "MMP-9 (% stimulated ctl)", "setting": "MMP-9; BETi1 1%", "result": "5% (2×) and 6%"}, {"measurement": "Mean conc MMP-9", "setting": "MMP-9; BETi1 1%", "result": 0.9, "unit": "ng/mL"}, {"measurement": "Conc MMP-9", "setting": "MMP-9; BETi1 1%", "result": "0.9 ng/mL and 1.1 ng/mL and 0.8 ng/mL"}, {"measurement": "Mean per condition (%)", "setting": "TRP-1; [1]", "result": 24, "unit": "%"}, {"measurement": "Mean per RHE (%)", "setting": "TRP-1; [1]", "result": "21.6% and 27.0% and 22.1%"}, {"measurement": "Mean per condition (%)", "setting": "TRP-1; BETi1 0.01%, stimulated RHE, with normalization to ROI", "result": 15, "unit": "%"}, {"measurement": "Mean per condition (%)", "setting": "TRP-1; BETi1 0.01%, stimulated RHE, without normalization to ROI", "result": 20, "unit": "%"}, {"measurement": "Mean per condition (%)", "setting": "TRP-1; BETi1 0.1%, stimulated RHE, with normalization to ROI", "result": 92, "unit": "%"}, {"measurement": "Mean per condition (%)", "setting": "TRP-1; BETi1 0.1%, stimulated RHE, without normalization to ROI", "result": 120, "unit": "%"}, {"measurement": "Mean per condition (%)", "setting": "TRP-1; [2]", "result": 149, "unit": "%"}, {"measurement": "Mean per RHE (%)", "setting": "TRP-1; [2]", "result": "169% and 120% and 158%"}, {"measurement": "Mean per condition (%)", "setting": "TRP-1; [3]", "result": 192, "unit": "%"}, {"measurement": "Mean per RHE (%)", "setting": "TRP-1; [3]", "result": "220.8% and 151.1% and 203.4%"}, {"measurement": "Mean per condition (%)", "setting": "TRP-1; [4]", "result": 17, "unit": "%"}, {"measurement": "Mean per RHE (%)", "setting": "TRP-1; [4]", "result": "18% and 19% and 14%"}, {"measurement": "TRP-1 in the basal layers", "setting": "TRP-1; BETi1 formulation at 1%, stimulated RHE", "result": "TRP-1 is significantly increased in the basal layers"}, {"measurement": "TRP-1 % staining relative to stimulated control, Mean per RHE (%)", "setting": "TRP-1; Stimulated + BETi1 0.001%", "result": "6% and 8%"}, {"measurement": "TRP-1 % staining relative to stimulated control, Mean per condition (%)", "setting": "TRP-1; Stimulated + BETi1 0.001%", "result": 7, "unit": "%"}, {"measurement": "TRP-1 % staining relative to stimulated control, Mean per condition (%)", "setting": "TRP-1; Stimulated + BETi1 0.01%", "result": 30, "unit": "%"}, {"measurement": "TRP-1 % staining relative to stimulated control, Mean per condition (%)", "setting": "TRP-1; Stimulated + BETi1 0.1%", "result": 227, "unit": "%"}, {"measurement": "TRP-1 % staining relative to stimulated control, Mean per condition (%)", "setting": "TRP-1; Stimulated + BETi1 1%", "result": 292, "unit": "%"}]}
